Test results as given in patent US20130324598A1, “TREATING MYCOBACTERIAL INFECTION WITH CU+/++ BOOSTING THERAPEUTICS” (priority 2011, published 2013).
Read-outs that look alike come from different tables or passages of the source.

Legend:
[1] = system: M. tuberculosis (mc^26230); format: cell-based, Mycobacterium tuberculosis
macrophages = test: Toxicity of GTSM and ATSM towards macrophages (50% reduction in viability); format: cell-based
Source text: Fluorescence intensity was a measure of cell viability and was shown as percent of viability of untreated cells that were not exposed to GTSM-Cu or ATSM-Cu. The inhibitory concentration (IC50) was estimated based on the shape of the curve, and indicates the concentration at which a 50% decrease in viability is observed, and the therapeutic index was estimated based on the lethal dose (LD50) of these compounds for macrophages, which indicates a 50% reduction in viability. The LD50 of GTSM towards macrophages, the main residential cell type for M. tuberculosis, is 10 μM. […] The therapeutic index calculates as TI=LD50/IC50

[2] = concentrations higher than 10 μM could not be tested

In the case of CNC1=NN=C(C)C(C)=NN=C(NC)[S][Cu][S]1 [ATSM-Cu complex], the “activity against Mycobacterium tuberculosis” value ([1]; copper complex, FIG. 5 / FIG. 6) is reported as “active”.
In the case of CNC(=S)N/N=C(C)/C(C)=N/NC(=S)NC [ATSM], the “Mycobacterium tuberculosis cell viability” value [1] is reported as “decreased significantly”, the toxicity towards macrophages (macrophages; up to 10 μM) is reported as “did not show any toxicity” and the solubility [2] is reported as “limited solubility”.
In the case of CNC(=S)NN=CC=NNC(=S)NC [GTSM], the “therapeutic index (TD50/IC50; TI=LD50/IC50)” value ([1]; […], copper complex, estimated) is reported as 25, the “Mycobacterium tuberculosis cell viability” value ([1]; complexed with copper, 10 μM copper, fluorescence 12 hours after AlamarBlue addition) is reported as “decreased significantly” and the LD50 towards macrophages (macrophages; 50% reduction in viability of macrophages) is reported as 10 µM.
